In PubChem BioAssay (NCI):
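How tested: cells in 96-well plates exposed to compound for 48 hours at five concentrations. The concentration for full growth arrest is given as TGI.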

Experiments:
Experiment in all cases: inhibition of tumour cell growth, NCI panel, 48 h
786-0 renal = test system: 786-0 renal
A498 renal = test system: A498 renal
A549 NSCLC = test system: A549 NSCLC
ACHN renal = test system: ACHN renal
BT-549 breast = test system: BT-549 breast
CAKI-1 renal = test system: CAKI-1 renal
CCRF-CEM leukemia = test system: CCRF-CEM leukemia
COLO 205 colon = test system: COLO 205 colon
DLD-1 colon = test system: DLD-1 colon
DMS 114 small cell lung = test system: DMS 114 small cell lung
DMS 273 small cell lung = test system: DMS 273 small cell lung
DU-145 prostate = test system: DU-145 prostate
EKVX NSCLC = test system: EKVX NSCLC
HCC-2998 colon = test system: HCC-2998 colon
HCT-116 colon = test system: HCT-116 colon
HCT-15 colon = test system: HCT-15 colon
HL-60(TB) leukemia = test system: HL-60(TB) leukemia
HOP-18 NSCLC = test system: HOP-18 NSCLC
HOP-62 NSCLC = test system: HOP-62 NSCLC
HOP-92 NSCLC = test system: HOP-92 NSCLC
HS 578T breast = test system: HS 578T breast
HT29 colon = test system: HT29 colon
IGROV1 ovarian = test system: IGROV1 ovarian
K-562 leukemia = test system: K-562 leukemia
KM12 colon = test system: KM12 colon
KM20L2 colon = test system: KM20L2 colon
LOX IMVI melanoma = test system: LOX IMVI melanoma
LXFL 529 NSCLC = test system: LXFL 529 NSCLC
M14 melanoma = test system: M14 melanoma
M19-MEL melanoma = test system: M19-MEL melanoma
MALME-3M melanoma = test system: MALME-3M melanoma
MCF7 breast = test system: MCF7 breast
MDA-MB-231 breast = test system: MDA-MB-231 breast
MDA-MB-435 = test system: MDA-MB-435
MDA-N = test system: MDA-N
MOLT-4 leukemia = test system: MOLT-4 leukemia
NCI-H226 lung = test system: NCI-H226 lung
NCI-H23 lung = test system: NCI-H23 lung
NCI-H460 lung = test system: NCI-H460 lung
NCI-H522 lung = test system: NCI-H522 lung
NCI/ADR-RES ovarian = test system: NCI/ADR-RES ovarian
OVCAR-3 ovarian = test system: OVCAR-3 ovarian
OVCAR-4 ovarian = test system: OVCAR-4 ovarian
OVCAR-5 ovarian = test system: OVCAR-5 ovarian
OVCAR-8 ovarian = test system: OVCAR-8 ovarian
PC-3 prostate = test system: PC-3 prostate
RPMI-8226 leukemia = test system: RPMI-8226 leukemia
RXF 393 renal = test system: RXF 393 renal
SF-268 CNS = test system: SF-268 CNS
SF-295 CNS = test system: SF-295 CNS
SF-539 CNS = test system: SF-539 CNS
SK-MEL-2 melanoma = test system: SK-MEL-2 melanoma
SK-MEL-28 melanoma = test system: SK-MEL-28 melanoma
SK-MEL-5 melanoma = test system: SK-MEL-5 melanoma
SK-OV-3 ovarian = test system: SK-OV-3 ovarian
SN12C renal = test system: SN12C renal
SNB-19 CNS = test system: SNB-19 CNS
SNB-75 CNS = test system: SNB-75 CNS
SNB-78 CNS = test system: SNB-78 CNS
SR leukemia = test system: SR leukemia
SW-620 colon = test system: SW-620 colon
T-47D breast = test system: T-47D breast
TK-10 renal = test system: TK-10 renal
U251 CNS = test system: U251 CNS
UACC-257 melanoma = test system: UACC-257 melanoma
UACC-62 melanoma = test system: UACC-62 melanoma
UO-31 renal = test system: UO-31 renal
XF 498 CNS = test system: XF 498 CNS

## O=C(O)CNCc1c2ccccc2nc2ccccc12
786-0 renal
  TGI: > 95.4 µM
A498 renal
  TGI: > 100 µM
A549 NSCLC
  TGI: > 100 µM
ACHN renal
  TGI: > 100 µM
BT-549 breast
  TGI: > 100 µM
CAKI-1 renal
  TGI: > 90.8 µM
CCRF-CEM leukemia
  TGI: 41.2 µM
COLO 205 colon
  TGI: > 100 µM
DLD-1 colon
  TGI: > 100 µM
DMS 114 small cell lung
  TGI: 72.7 µM
DMS 273 small cell lung
  TGI: > 100 µM
DU-145 prostate
  TGI: > 100 µM
EKVX NSCLC
  TGI: > 100 µM
HCC-2998 colon
  TGI: > 100 µM
HCT-116 colon
  TGI: > 45.5 µM
HCT-15 colon
  TGI: > 100 µM
HL-60(TB) leukemia
  TGI: 29.6 µM
HOP-18 NSCLC
  TGI: > 100 µM
HOP-62 NSCLC
  TGI: > 100 µM
HOP-92 NSCLC
  TGI: 85.4 µM
HS 578T breast
  TGI: > 100 µM
HT29 colon
  TGI: > 84.8 µM
IGROV1 ovarian
  TGI: > 100 µM
K-562 leukemia
  TGI: > 82.7 µM
KM12 colon
  TGI: > 100 µM
KM20L2 colon
  TGI: 91.1 µM
LOX IMVI melanoma
  TGI: > 100 µM
LXFL 529 NSCLC
  TGI: > 71 µM
M14 melanoma
  TGI: > 100 µM
M19-MEL melanoma
  TGI: > 100 µM
MALME-3M melanoma
  TGI: > 100 µM
MCF7 breast
  TGI: > 100 µM
MDA-MB-231 breast
  TGI: > 100 µM
MDA-MB-435
  TGI: > 100 µM
MDA-N
  TGI: > 100 µM
MOLT-4 leukemia
  TGI: 44.9 µM
NCI-H226 lung
  TGI: > 100 µM
NCI-H23 lung
  TGI: > 100 µM
NCI-H460 lung
  TGI: > 86.7 µM
NCI-H522 lung
  TGI: 57.5 µM
NCI/ADR-RES ovarian
  TGI: > 100 µM
OVCAR-3 ovarian
  TGI: > 100 µM
OVCAR-4 ovarian
  TGI: > 89.8 µM
OVCAR-5 ovarian
  TGI: > 100 µM
OVCAR-8 ovarian
  TGI: > 100 µM
PC-3 prostate
  TGI: > 100 µM
RPMI-8226 leukemia
  TGI: 71.9 µM
RXF 393 renal
  TGI: > 78.3 µM
SF-268 CNS
  TGI: > 100 µM
SF-295 CNS
  TGI: > 100 µM
SF-539 CNS
  TGI: 87.2 µM
SK-MEL-2 melanoma
  TGI: > 100 µM
SK-MEL-28 melanoma
  TGI: > 100 µM
SK-MEL-5 melanoma
  TGI: > 60.4 µM
SK-OV-3 ovarian
  TGI: > 100 µM
SN12C renal
  TGI: > 100 µM
SNB-19 CNS
  TGI: > 100 µM
SNB-75 CNS
  TGI: > 79.4 µM
SNB-78 CNS
  TGI: > 100 µM
SR leukemia
  TGI: > 70.5 µM
SW-620 colon
  TGI: > 100 µM
T-47D breast
  TGI: > 100 µM
TK-10 renal
  TGI: > 100 µM
U251 CNS
  TGI: > 100 µM
UACC-257 melanoma
  TGI: > 94.9 µM
UACC-62 melanoma
  TGI: > 100 µM
UO-31 renal
  TGI: > 91.5 µM
XF 498 CNS
  TGI: > 77.6 µM
